Results: BindingDB's records for doi:10.1016/s0223-5234(00)01171-5 (Clinical Research Institute of Montreal, 2000)
Several values for one entry are separate records, joined by “and”; a condition that tells them apart may be missing. Identical values can stand only once.

What was measured:
[1] = target: Delta-type opioid receptor (Mus musculus, UniProt P32300)
[2] = target: Kappa-type opioid receptor (Cavia porcellus, UniProt P41144)
Mu-type opioid receptor = Mu-type opioid receptor (Cavia porcellus, UniProt P97266)
Mu-type opioid receptor, sequence (P97266 whole entry): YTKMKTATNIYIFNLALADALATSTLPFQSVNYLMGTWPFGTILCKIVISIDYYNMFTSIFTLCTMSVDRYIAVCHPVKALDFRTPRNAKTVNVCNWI

Kappa-type opioid receptor, sequence (P41144 whole entry): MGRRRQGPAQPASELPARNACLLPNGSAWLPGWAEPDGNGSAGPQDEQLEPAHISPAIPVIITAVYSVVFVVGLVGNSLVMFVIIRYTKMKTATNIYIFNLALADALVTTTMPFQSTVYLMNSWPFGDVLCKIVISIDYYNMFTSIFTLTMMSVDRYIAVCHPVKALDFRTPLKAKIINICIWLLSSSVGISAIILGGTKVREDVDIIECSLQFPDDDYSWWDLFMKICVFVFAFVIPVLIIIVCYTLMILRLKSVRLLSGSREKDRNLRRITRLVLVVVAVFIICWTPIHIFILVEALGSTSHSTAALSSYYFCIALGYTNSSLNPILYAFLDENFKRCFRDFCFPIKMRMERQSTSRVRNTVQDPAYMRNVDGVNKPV
Delta-type opioid receptor, sequence (P32300 whole entry): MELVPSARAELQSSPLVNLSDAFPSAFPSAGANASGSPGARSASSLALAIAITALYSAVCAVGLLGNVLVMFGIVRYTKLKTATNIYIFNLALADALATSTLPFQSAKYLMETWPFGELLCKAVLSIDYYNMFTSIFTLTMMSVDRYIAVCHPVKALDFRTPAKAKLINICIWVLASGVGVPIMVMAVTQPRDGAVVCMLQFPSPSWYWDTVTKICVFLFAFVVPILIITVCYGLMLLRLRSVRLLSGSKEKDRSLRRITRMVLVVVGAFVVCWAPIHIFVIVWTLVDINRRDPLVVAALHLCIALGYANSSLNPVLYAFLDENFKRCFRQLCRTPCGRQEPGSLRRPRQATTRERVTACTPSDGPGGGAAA

Compound | Ki [1] | Ki [2] [nM] | Ki (Mu-type opioid receptor) [nM]
Cc1cc(O)cc(C)c1C[C@H](N)C(=O)N[C@H](CCCN=C(N)N)C(=O)N[C@@H](Cc1ccccc1)C(=O)N[C@@H](CCCN)C(N)=O [Dmt-d-Arg-Phe-Orn-NH2] | 1240 nM | 26.3 | 0.151
Cc1cc(O)cc(C)c1C[C@H](N)C(=O)N[C@H](CCCN=C(N)N)C(=O)N[C@@H](Cc1ccccc1)C(=O)N[C@@H](CCN)C(N)=O [H-Dmt-D-Arg-Phe-A2bu-NH2] | 6130 nM | 47.5 | 0.803
Cc1cc(O)ccc1C[C@H](N)C(=O)N[C@H](CCCN=C(N)N)C(=O)N[C@@H](Cc1ccccc1)C(=O)N[C@@H](CCCCN)C(N)=O [H-Hmt-D-Arg-Phe-Lys-NH2 II] | > 10000 nM and 2320 nM |  | 
NCCCC[C@H](NC(=O)[C@H](Cc1ccccc1)NC(=O)[C@@H](CCCN=C(N)N)NC(=O)[C@@H](N)Cc1ccc(O)cc1)C(N)=O [NSC_122222] |  | 4230 | 1.69
CN[C@@H](Cc1c(C)cc(O)cc1C)C(=O)N[C@H](CCCN=C(N)N)C(=O)N[C@@H](Cc1ccccc1)C(=O)N[C@@H](CCCCN)C(N)=O [Tmt-D-Arg-Phe-Lys-NH2] | 543 nM | 46.1 | 0.192
